From patent US20090124587A1, “METHODS FOR TREATING CANCER USING 17alpha-HYDROXYLASE/C17,20-LYASE INHIBITORS” (priority 2007, published 2009)

Tests used:
Type in all cases: in vivo, human
[1] = Pharmacokinetic study of abiraterone in hormone refractory prostate cancer patients, oral doses 250-2000 mg/day, fasted
Protocol: A group of 15 subjects was divided into five groups. Members of each group were orally administered doses of 250 mg/day, 500 mg/day, 750 mg/day, 1000 mg/day or 2000 mg/day once a day. Before administration the subjects had fasted. PK blood samples were measured at 1, 2, 4, 6, 8, 24, and 72 hours post dose.
(§1) To measure the amount of abiraterone and abiraterone acetate in the samples, these compounds were extracted from 100 uL human plasma using solid phase extraction (SPE) with cation mixed-mode polymer cartridges. Extracts were evaporated to dryness before reconstitution and analysis. Chromatography was carried out using a Luna™ C5 column (5 μm, 50 mm×2.1 mm id) with a gradient mobile phase consisting of 10 mM ammonium acetate and 2% propan-2-ol in acetonitrile. The flow rate was 0.2 mL/min and the run time 10.5 minutes. Abiraterone and abiraterone acetate were ionized using the electrospray interface in positive ion mode. Detection of analytes was via tandem mass spectrometry (MS/MS) in the multiple reaction monitoring (MRM) mode.
PK modeling was conducted using a non-compartmental model, extra vascular input for plasma with WinNonLin Software®. Pharmacokinetic parameters estimated in the model include: […]

[2] = Food effect PK study, two single oral 1000 mg doses of abiraterone acetate, fed (high fat) vs fasted
Protocol: as §1
PK modeling was conducted using a non-compartmental model, extra vascular input for plasma with WinNonLin Software®. Pharmacokinetic parameters estimated in the model include:
Based on the above results, the PK parameters for a single dose of 1000 mg/day of abiraterone acetate were further studied in the 3 subjects who were administered the 1000 mg/day dose and in 3 additional subjects. Two single oral doses (1000 mg) of abiraterone acetate were administered separately, one concomitantly with food of high fat content and one in fasting state. The first single dose was administered on day −9 with PK blood samples being taken at 1, 2, 4, 6, 8, 24, 48 and 72 hours post dose. The second single dose was administered on day −3 with PK blood samples being taken at 1, 2, 4, 6, 8, 24 and 48 hours post dose for analysis.

[3] = test system: prostate-specific antigen (PSA); assay: Effect of abiraterone acetate on blood levels of prostate-specific antigen (PSA)
Protocol: (§2) The effect of abiraterone acetate on the blood levels of prostate-specific antigen (PSA) was evaluated. Two groups of subjects were involved in the study. The first group (“Group 1”) was comprised of the 18 subjects discussed above as well as 12 additional subjects that were administered 1000 mg/day of abiraterone acetate. All 30 of the subjects in Group 1 were castrated and hormone refractory; however, none of the 30 had been treated with chemotherapy, i.e., they were chemotherapy-naïve. The second group (“Group 2”) was comprised of 13 subjects, all of whom were castrated and hormone refractory. Also, these 13 subjects had been administered docetaxel and were chemotherapy refractory. The subjects in Group 2 were administered 1000 mg/day of abiraterone acetate. The subjects in both groups were administered abiraterone acetate until they progressed.
60% of the Group 1 subjects (18 of 30) experienced a decline of PSA levels of greater than 50% for more than 10 days. A third of these subjects experienced PSA declines of greater than 90% for more than 10 days. FIGS. 9A-9D show the effect of the administration of abiraterone acetate on PSA levels for certain of the Group 1 subjects that were administered 250 mg/day, 500 mg/day, 750 mg/day and 1000 mg/day of abiraterone acetate. With respect to the Group 2 subjects, 7 of the 13 subjects experienced a decline in PSA levels of about 50% for more than 10 days.

tumor lesions = assay: Effect on tumor mass size, CT scans (RECIST), bone disease, nodes and metastases
Protocol: as §2
The effect of the administration of abiraterone acetate on tumor mass size was observed.

[4] = Safety, dose limiting toxicity in phase I/II study; details: all subjects tested, Group 1 (250-2000 mg/day) and Group 2 (1000 mg/day)
Protocol: An open label phase I/II study was carried out to evaluate the safety, efficacy and recommended dose of abiraterone acetate in prostate cancer patients. Pharmacokinetics (PK), pharmacodynamics and antitumor efficacy were also studied.
as §2

[5] = test system: circulating tumor cells (CTC); assay: Number of circulating tumor cells after administration; details: certain patients after administration
[6] = test system: alkaline phosphatase (ALP); assay: Blood plasma levels of alkaline phosphatase; details: some subjects
Protocol: (§3) FIGS. 15A-15H show the blood plasma level of certain steroids over time in subjects that were administered 250 mg/day, 500 mg/day and 750 mg/day of abiraterone acetate.

[7] = test system: androgenic steroids, such as testosterone; assay: Blood plasma levels of androgenic steroids; details: some subjects
Protocol: as §3

[8] = Analgesic use in Group 1 and Group 2 subjects; details: subjects of both groups

With `CC(=O)O[C@H]1CC[C@@]2(C)C(=CCC3C2CC[C@]2(C)C(c4cccnc4)=CCC32)C1` (stereo partly shown) [abiraterone acetate, 3-acetoxy-17-(3-pyridyl)androsta-5,16-diene] as the compound, how does the “drug levels at 1000 mg compared with 500 mg” value ([1]; 1000 mg vs 500 mg Abiraterone acetate) read?
The value was “higher”.

And the “drug levels measured at 1000 mg compared with 750 mg fasting” value ([1]; 1000 mg vs 750 mg in a fasting state)?
Its value is “not higher”.

And the “AUC at 2000 mg relative to 1000 mg (doubling)” value ([2]; extended cohort, fasted group)?
Its value is “no longer”.

What about the “AUC at 2000 mg relative to 1000 mg” value ([2]; extended cohort, fed group) of the same compound?
Its value is “approximate doubling of AUC”.

And the “abiraterone acetate detected in vivo” value ([2]; following an oral dose of abiraterone acetate at 1000 mg)?
The value was “no abiraterone acetate was detected”.

What about the “mean drug exposure (AUC) at 2000 mg relative to 1000 mg” value ([2]; previously, in both dosing regimes (fed and fasted)) of the same compound?
The value was “approximately double”.

What about the “subjects with decline of PSA levels of greater than 50% for more than 10 days” value ([3]; Group 1: 30 castrated, hormone refractory, chemotherapy-naïve subjects (18 of 30)) of the same compound?
Its value is 60%.

And the “subjects with PSA declines of greater than 90% for more than 10 days” value ([3]; Group 1, fraction of these subjects)?
The value was “A third”.

What about the “subjects with decline in PSA levels of about 50% for more than 10 days” value ([3]; Group 2: 13 castrated, hormone refractory, docetaxel-treated chemotherapy refractory subjects, 1000 mg/day) of the same compound?
Its value is 7 of the 13.

And the “partial radiological responses as measured by CT scans (RECIST)” value (tumor lesions; 20 evaluable Group 1 subjects with measurable tumor lesions)?
The value was 11 subjects.

And the “subjects with ongoing stable bone disease” value (tumor lesions; Group 1)?
Its value is “Seven”.

And the “subjects with regressing bone disease” value (tumor lesions; Group 1)?
The value was “three”.

And the pelvic nodes (tumor lesions; subject administered 250 mg/day (FIG. 10))?
Its pelvic nodes is “regression of pelvic nodes”.

And the mediastinal nodes (tumor lesions; subject administered 500 mg/day (FIG. 13))?
The mediastinal nodes was “regression of mediastinal nodes”.

And the pelvic nodes (tumor lesions; subject administered 750 mg/day (FIG. 11))?
Its pelvic nodes is “regression of pelvic nodes”.

And the pulmonary metastases (tumor lesions; subject administered 750 mg/day (FIG. 14))?
Its pulmonary metastases is “regression of pulmonary metastases”.

What about the pelvic nodes (tumor lesions; subject administered 1000 mg/day (FIG. 12)) of the same compound?
The pelvic nodes was “regression of pelvic nodes”.

What about the “dose limiting toxicity (DLTs)” value [4] of the same compound?
The value was “No dose limiting toxicity (DLTs) were observed”.

What about the “number of circulating tumor cells (CTC)” value [5] of the same compound?
Its value is “declines”.

What about the “blood plasma levels of alkaline phosphatase (ALP)” value [6] of the same compound?
The value was “declines”.

What about the “blood plasma levels of androgenic steroids, such as testosterone” value [7] of the same compound?
Its value is “declines”.

What about the analgesic use [8] of the same compound?
The analgesic use was “decrease in analgesic use was observed”.
